Data as given in PubChem BioAssay AID1996.
Converted amounts (≈) assume the structure as drawn.

Settings: buffer; pH 7.4; 200.0 µM

Question: For `COc1ccccc1C(=O)NC(=O)CSc1nnc2ccccn12`, which solubility kinetic is on record?
Answer: Its solubility kinetic is > 51.4 µg/mL.

Question: Which solubility kinetic does the source give for `COc1ccc(F)cc1S(=O)(=O)Nc1ccncc1` here?
Answer: Its solubility kinetic is > 42.3 µg/mL.

Question: With `CCN1CCN(S(=O)(=O)Cc2ccccc2Cl)CC1` as the molecule, how does the solubility kinetic read?
Answer: The solubility kinetic was > 45.4 µg/mL.

Question: With `COc1ccc(OC)c(S(=O)(=O)n2ccnc2C(C)C)c1` as the molecule, how does the solubility kinetic read?
Answer: The solubility kinetic was 46.1 µg/mL (≈ 149 µM).

Question: Which solubility kinetic does the source give for `COCCCNC(=O)C1CCN(c2ccc(N3CCOCC3)nn2)CC1` here?
Answer: Its solubility kinetic is > 54.5 µg/mL.

Question: For `CCOc1ccc(/C=N/OCC(=O)NCc2ccco2)cc1`, which solubility kinetic is on record?
Answer: Its solubility kinetic is > 45.3 µg/mL.

Question: Which solubility kinetic does the source give for `CCn1c(COc2ccc(C)cc2)nc2ccccc21` here?
Answer: The solubility kinetic was 2.2 µg/mL (≈ 8.26 µM).

Question: Which solubility kinetic does the source give for `COc1ccc(-c2nc3cc([N+](=O)[O-])ccc3o2)cc1OC` here?
Answer: The solubility kinetic was < 0.3 µg/mL.

Question: Which solubility kinetic does the source give for `O=C(NCc1ccc(Cl)cc1)c1nccnc1CO` here?
Answer: Its solubility kinetic is 40.5 µg/mL (≈ 146 µM).

Question: For `COc1ccccc1NC(=S)NCc1ccccc1Cl`, which solubility kinetic is on record?
Answer: Its solubility kinetic is 1.3 µg/mL (≈ 4.24 µM).

Question: With `COCCNC(=S)N(CCc1c(C)[nH]c2ccccc12)Cc1ccco1` as the molecule, how does the solubility kinetic read?
Answer: Its solubility kinetic is 27.9 µg/mL (≈ 75.1 µM).

Question: Which solubility kinetic does the source give for `CCN1C(=O)CS/C1=N\S(=O)(=O)c1ccccc1` here?
Answer: The solubility kinetic was > 42.7 µg/mL.

Question: Which solubility kinetic does the source give for `O=C(Cc1ccccc1)Nc1ccc(C(=O)NCc2ccccc2)cc1` here?
Answer: Its solubility kinetic is < 0.4 µg/mL.

Question: Which solubility kinetic does the source give for `NC(=O)c1ccc(=O)n(Cc2ccc(Cl)cc2Cl)c1` here?
Answer: Its solubility kinetic is > 44.6 µg/mL.

Question: Which solubility kinetic does the source give for `COc1ccc(S(=O)(=O)N2CCN(c3cnccn3)CC2)cc1` here?
Answer: The solubility kinetic was > 50.2 µg/mL.

Question: With `COc1ccc(OC)c(/C=N/OC(=O)Nc2ccc(Cl)cc2)c1` as the molecule, how does the solubility kinetic read?
Answer: The solubility kinetic was 8.3 µg/mL (≈ 24.8 µM).

Question: Which solubility kinetic does the source give for `COc1nc(C)ccc1-c1noc(-c2cccnc2)n1` here?
Answer: The solubility kinetic was 14.6 µg/mL (≈ 54.4 µM).

Question: Which solubility kinetic does the source give for `Cc1cc(C)cc(N2C(=O)CSC2c2ccccn2)c1` (stereo not given) here?
Answer: The solubility kinetic was > 42.7 µg/mL.

Question: For `COc1cc(/C=C/C(=O)OCC(=O)NCCc2ccc(F)cc2)ccc1OC(F)F`, which solubility kinetic is on record?
Answer: The solubility kinetic was 4 µg/mL (≈ 9.45 µM).

Question: With `O=C(NC1CCCc2ccccc21)c1ccccc1OC(F)F` (stereo not given) as the molecule, how does the solubility kinetic read?
Answer: Its solubility kinetic is 15.5 µg/mL (≈ 48.8 µM).

Question: Which solubility kinetic does the source give for `COC(=O)c1ccc(S(=O)(=O)NCc2ccco2)n1C` here?
Answer: Its solubility kinetic is 44.3 µg/mL (≈ 148 µM).

Question: Which solubility kinetic does the source give for `CN(c1ccc(C(=O)COC(=O)C2CC2)cc1)S(C)(=O)=O` here?
Answer: The solubility kinetic was > 46.7 µg/mL.

Question: For `O=S(=O)(c1ccccc1)N(Cc1ccccn1)Cc1ccccn1`, which solubility kinetic is on record?
Answer: The solubility kinetic was > 50.9 µg/mL.

Question: For `Cc1nonc1NC(=O)CSc1nc2ccccc2o1`, which solubility kinetic is on record?
Answer: Its solubility kinetic is 42.4 µg/mL (≈ 146 µM).

Question: Which solubility kinetic does the source give for `O=C(CNC(=O)c1ccc(OC(F)F)cc1)NC1CCCc2ccccc21` (stereo not given) here?
Answer: The solubility kinetic was 5.6 µg/mL (≈ 15 µM).

Question: For `CC(=O)O.CC1=CC(C)C(/C=N/N=C(N)N)C(C)C1` (stereo not given), which solubility kinetic is on record?
Answer: The solubility kinetic was > 40.3 µg/mL.

Question: With `CC(=O)N(c1ccc(C)cc1)c1nc(C)cc(C)c1C#N` as the molecule, how does the solubility kinetic read?
Answer: The solubility kinetic was > 41.9 µg/mL.

Question: With `CC(C)Cc1nc2sc3c(SCC(N)=O)ncnc3c2c2c1CCC2` as the molecule, how does the solubility kinetic read?
Answer: Its solubility kinetic is 0.3 µg/mL (≈ 0.805 µM).

Question: Which solubility kinetic does the source give for `COc1ccc(NC(=O)CSc2ccc3c(c2)OCCO3)cc1S(N)(=O)=O` here?
Answer: Its solubility kinetic is > 61.6 µg/mL.

Question: For `COc1ccc(OC)c(NC(=O)CCN2CCN(C)CC2)c1.Cl`, which solubility kinetic is on record?
Answer: Its solubility kinetic is 44.2 µg/mL.

Question: For `O=S(=O)(NCCCN1CCOCC1)c1ccc2ccccc2c1`, which solubility kinetic is on record?
Answer: Its solubility kinetic is > 50.2 µg/mL.

Question: Which solubility kinetic does the source give for `O=C(C1COc2ccccc2O1)N1CCN(c2ccc([N+](=O)[O-])cc2)CC1` (stereo not given) here?
Answer: The solubility kinetic was 7.7 µg/mL (≈ 20.8 µM).

Question: For `Cc1c(C(=O)Nc2ccccc2)c2ccc(C(F)(F)F)cc2n1O`, which solubility kinetic is on record?
Answer: Its solubility kinetic is 1 µg/mL (≈ 2.99 µM).

Question: For `O=S(=O)(NCc1cccnc1)c1ccc(Cl)c2ccccc12`, which solubility kinetic is on record?
Answer: The solubility kinetic was > 49.9 µg/mL.

Question: With `O=C(COC(=O)/C=C/c1ccc([N+](=O)[O-])cc1)NCC1CCCCC1` as the molecule, how does the solubility kinetic read?
Answer: The solubility kinetic was 1.5 µg/mL (≈ 4.33 µM).

Question: With `CC1(C)OC(=O)C(=NNc2ccc(C(=O)O)cc2)C(=O)O1` as the molecule, how does the solubility kinetic read?
Answer: Its solubility kinetic is > 43.8 µg/mL.

Question: With `O=C(Cc1cccc(C(F)(F)F)c1)N1CCCC1` as the molecule, how does the solubility kinetic read?
Answer: The solubility kinetic was > 38.6 µg/mL.

Question: For `COc1cc(OC)cc(C(=O)NC2CCSc3ccccc32)c1` (stereo not given), which solubility kinetic is on record?
Answer: The solubility kinetic was 3.9 µg/mL (≈ 11.8 µM).

Question: Which solubility kinetic does the source give for `CC(=O)c1cccc(NC(=S)N2CCCC2)c1` here?
Answer: The solubility kinetic was > 37.3 µg/mL.

Question: Which solubility kinetic does the source give for `CCC1(CC)Cc2ccccc2-c2[nH]c(=S)[nH]c(=O)c21` here?
Answer: Its solubility kinetic is 27.3 µg/mL (≈ 95.3 µM).

Question: With `O=C(c1ccc([N+](=O)[O-])o1)N1CCN(Cc2ccccc2)CC1` as the molecule, how does the solubility kinetic read?
Answer: The solubility kinetic was 9.2 µg/mL (≈ 29.2 µM).

Question: Which solubility kinetic does the source give for `O=C(O)CSCC(=O)NC1CCCc2ccccc21` (stereo not given) here?
Answer: The solubility kinetic was > 41.9 µg/mL.

Question: For `Cc1ccccc1S(=O)(=O)NC(=NCc1ccc(F)cc1)c1ccccc1`, which solubility kinetic is on record?
Answer: The solubility kinetic was 34.1 µg/mL (≈ 89.2 µM).

Question: With `CC(CCc1ccc(O)cc1)NCCC(c1ccccc1)c1ccccc1` (stereo not given) as the molecule, how does the solubility kinetic read?
Answer: The solubility kinetic was 53.4 µg/mL (≈ 149 µM).

Question: For `Cc1noc(-c2ccccc2)c1NC(=O)Nc1ccc(Cl)cc1`, which solubility kinetic is on record?
Answer: Its solubility kinetic is 3.1 µg/mL (≈ 9.46 µM).

Question: For `Fc1cccc(NC(=S)NCc2ccccc2Cl)c1`, which solubility kinetic is on record?
Answer: The solubility kinetic was 1.6 µg/mL (≈ 5.43 µM).

Question: With `CCOC(=O)c1ccc2[nH]c3c(c2c1)CCCC3NC=O` (stereo not given) as the molecule, how does the solubility kinetic read?
Answer: The solubility kinetic was > 42.9 µg/mL.

Question: With `NC(=O)c1cccnc1Oc1ccccc1` as the molecule, how does the solubility kinetic read?
Answer: Its solubility kinetic is 28.8 µg/mL (≈ 134 µM).

Question: With `O=C(/C=C1\SC(=O)NC1=O)Nc1ccc(C(=O)O)cc1` as the molecule, how does the solubility kinetic read?
Answer: Its solubility kinetic is > 43.8 µg/mL.

Question: Which solubility kinetic does the source give for `COc1ccc(-c2noc(CCC(=O)NCc3ccco3)n2)cc1` here?
Answer: The solubility kinetic was 39.7 µg/mL (≈ 121 µM).

Question: Which solubility kinetic does the source give for `CN1CCN(NC(=O)c2ccc(Cl)s2)CC1` here?
Answer: The solubility kinetic was > 39 µg/mL.

Question: Which solubility kinetic does the source give for `O=C(O)C(=O)O.c1ccc2c(OCCCN3CCCCCC3)cccc2c1` here?
Answer: Its solubility kinetic is 32.8 µg/mL.

Question: With `CC(=O)Nc1ccc(S(=O)(=O)N(C)CC(=O)OCC(=O)N2CCCCCC2)cc1` as the molecule, how does the solubility kinetic read?
Answer: The solubility kinetic was 60.3 µg/mL (≈ 142 µM).

Question: For `O=[N+]([O-])c1ccc2cn[nH]c2c1`, which solubility kinetic is on record?
Answer: The solubility kinetic was > 24.5 µg/mL.

Question: For `CN1C(=O)C(O)N=C(c2ccccc2)c2ccccc21` (stereo not given), which solubility kinetic is on record?
Answer: Its solubility kinetic is > 39.9 µg/mL.

Question: With `COc1cc(C=O)ccc1OC(=O)N1CCOCC1` as the molecule, how does the solubility kinetic read?
Answer: The solubility kinetic was > 39.8 µg/mL.

Question: For `COC(=O)c1cc(-c2cccc(OC)c2)c2c(=O)[nH]c(=O)n(C)c2n1`, which solubility kinetic is on record?
Answer: Its solubility kinetic is 3.4 µg/mL (≈ 9.96 µM).

Question: With `CCOc1ccc(C(=O)NCC(=O)N2CCCCCCC2)cc1` as the molecule, how does the solubility kinetic read?
Answer: The solubility kinetic was > 47.8 µg/mL.

Question: With `O=C(CSCc1ccc(C(=O)O)cc1)Nc1ccc2ccccc2c1` as the molecule, how does the solubility kinetic read?
Answer: The solubility kinetic was > 52.7 µg/mL.

Question: With `Cc1ccc(C)c(N2CCN(c3ncccc3[N+](=O)[O-])CC2)c1` as the molecule, how does the solubility kinetic read?
Answer: The solubility kinetic was 1.1 µg/mL (≈ 3.52 µM).
